Data as given in paper PMC7157554, “Anti-Trypanosomal Proteasome Inhibitors Cure Hemolymphatic and Meningoencephalic Murine Infection Models of African Trypanosomiasis” (Tropical Medicine and Infectious Disease, 2020).
Read-outs that look alike come from different tables or passages of the source.

What was measured:
[1] = Mouse plasma protein binding; assay type: in vitro ADME; conditions: for fraction unbound: mouse plasma
Description: (§1) Test compounds’ solubility was determined in a high-throughput thermodynamic solubility assay, as described previously. The PAMPA (parallel artificial membrane) assays were carried out, using a standard protocol. Plasma protein binding was determined by using mouse blood, whilst brain tissue binding was determined by using rat brain tissue homogenate. Intrinsic metabolic clearances were determined in mouse liver microsomes, using the compound depletion approach and LC–MS/MS quantification.

[2] = LogD (measured octanol water co-efficient); assay type: physicochemical
[3] = PAMPA (parallel artificial membrane permeability assay); assay type: in vitro ADME; conditions: FA: fraction absorbed
Description: as §1

[4] = Brain-to-plasma drug concentration ratio in mice; assay type: in vivo; conditions: mouse, read-out: B/P Ratio; for Kp at 5 min: 5 min after 1 mg/kg i.v.; for Kp at 60 min: 60 min after 1 mg/kg i.v.
Description: For measurement of the brain-to-plasma drug concentration ratio, mice were dosed intravenously with 1 mg/kg compounds. Mice were euthanized at 5 and 60 min post-dosing, and blood and brains were collected. The compound concentrations in plasma and brains were measured, following the protocol described above.

[5] = system: T. b. brucei (GVR35-VSL2); experiment: Meningoencephalic mouse model (stage 2 HAT efficacy model, GVR35) with bioluminescence imaging; assay type: in vivo; conditions: for % Cured / Mean Day of Relapse / Mice Cured/Total / Day of Relapse, mice which did not relapse (value in parenthesis): seven days; for Dose that completely cured stage 2 infection: HAT mouse model
Description: The GVR35 mouse CNS model mimics the second (meningoencephalic) stage of African trypanosomiasis. Female CD1 mice (~8 weeks old, from Charles River) were injected intraperitoneally (i.p.) with 3 × 10^4 T. b. brucei (GVR35-VSL2) bloodstream-form parasites. As controls, a group of three untreated mice and another group of three mice treated with diminazene aceturate (DA) were included. […] Mice treated with DA usually relapse after 42 days post-infection. […]
Blood parasitemia was quantified weekly from day 21/22, by microscopy of blood from the tail vein. Mice were imaged for bioluminescence using an in vivo imaging system (IVIS) prior to treatment on day 21/22, and weekly after treatment, as described previously. Briefly, mice, in groups of three, were injected i.p. with 150 mg of D-luciferin (Promega) per kilogram body weight in PBS and imaged after 10 min, using an IVIS Spectrum (PerkinElmer, Waltham, Massachusetts MA, USA). Living Image Software (PerkinElmer) was used for acquisition and analysis of bioluminescence imaging data. Bioluminescence in the same rectangular region of interest (ROI) on whole-body mouse images was quantified and is shown in total flux (photons per second). Images were cropped to the ROIs and composites of images from representative mice are shown. Uncured mice were euthanized within 1 or 2 days of parasite detection in the blood. Cured mice were euthanized between day 92 and 101 post-infection. All the results from the individual experiments were reported as number of mice cured over total number of mice treated. A Kaplan–Meier plot was used for representing the number of mice cured at different treatment doses.

[6] = Intravenous pharmacokinetics in mouse; assay type: in vivo; conditions: for T1/2 / Vd: i.v. 5 mg/kg; for T1/2: elimination half-life; for clearance / half-life / Vd: male, BALB/c, iv; for clearance / half-life: 5 mg/kg; for half-life: i.v., read-out: Elimination half-life (converted); for Vd: read-out: Vss
Description: Determination of intravenous (i.v.) and per oral (p.o.) pharmacokinetics (PK) were carried out by using male BALB/c mice. […] To avoid any granular material, the solution was filtered, using a 0.45 μm syringe filter. The filtered solutions were dosed intravenously to mice via the lateral tail vein, at 5 mg/kg, with a dosing volume of 2 mL/kg. For all the p.o. PK studies, compounds were resuspended in 0.5% v/v methyl cellulose in 0.5 % v/v tween 80 solution. For 20 mg/kg dosing, 200 µL of compounds was administered orally to mice. […] Blood samples were collected into heparin microtainers and centrifuged, and then plasma was separated and frozen until analysis. Plasma samples (20 μL) were extracted with acetonitrile:methanol (3:1) containing internal standard. […] The supernatant was transferred to a 96-well analysis plate and analyzed, using optimized LC/MS/MS conditions. For every experiment, 3 mice were used per compound, per dose. The plasma concentration-time profile was obtained by plotting the mean value from the three animals at each time point. Various PK parameters, such as Cmax (maximum concentration), area under curve (AUC) and oral bioavailability (F) for compounds, were calculated by non-compartmental regression analysis, using an in-house fitting program developed at GNF [8]. All the in-life studies were carried out under protocols approved by the Animal Care and Use Committee (IACUC), following animal ethics guidelines of GNF.

[7] = system: MDR1-MDCK (Multi Drug Resistant 1 overexpressing Madin–Darby canine kidney cells); experiment: in vitro; conditions: dog
Description: In order to evaluate potential of brain permeability, all three compounds were tested in an MDR1-MDCK permeability assay. […] Those that have a high efflux ratio are generally substrates for Pgp transporters, thereby having a higher propensity to be excluded from the brain. […] To assess directly the TP compounds’ ability to penetrate brain, mice were dosed with compound, and plasma and brains were collected after 5 and 60 min following intravenous dosing.

[8] = Intrinsic metabolic clearance in mouse liver microsomes; assay type: in vitro ADME
Description: as §1

T. b. brucei STIB795 = experiment: Hemolymphatic mouse model (stage 1 HAT efficacy model); assay type: in vivo; conditions: for % Cured / Mean day of Relapse / Mice Cured/Total: four days; for Minimum efficacious dose: QD dosing for four days, stage 1 model
Description: The T. b. brucei STIB795 acute mouse model mimics the hemolymphatic stage of the sleeping sickness disease. We used six female NMRI mice per experimental group, divided into two cages. Heparinized blood from a donor mouse with approximately 5 × 10^6 per mL parasitemia was suspended in phosphate saline glucose (PSG), to obtain a parasite suspension of […]. Each mouse was injected with 0.25 mL of parasite suspension (10^4 bloodstream forms of T. b. brucei STIB795) intraperitoneally. All compounds were formulated in 0.5% methylcellulose and 0.5% Tween80. Three days post-infection, test compounds were administered orally on four consecutive days, in a volume of 100 µL/10 g. Three mice served as infected–untreated controls. […] Until 31 days post-infection, parasitemia was monitored microscopically by tail-blood examination twice a week. Mice were considered cured when there was no parasitemia detected in the tail blood. All the results from the individual experiments were reported as number of mice cured over total number of mice treated. A Kaplan–Meier plot was used for representing the number of mice cured at different treatment doses.

[9] = liver microsomes, read-out: Mouse liver microsomal clearance

Cc1nc(C)c(C(=O)Nc2ccc(F)c(-c3nc4ncc(C(C)(C)C)cn4n3)c2)o1 [NITD689]
fraction unbound [1]: 0.095 | logD [2]: 3.05 | PAMPA Permeability (% FA) [3]: 99.1 % FA | Kp at 5 min ([4]; brain and plasma, intravenous): 0.12 | Kp at 60 min ([4]; brain and plasma, intravenous): 0.12 | % Cured ([5]; 15 mg/kg BID oral): 0% | Mean Day of Relapse ([5]; 15 mg/kg BID oral): 42 days post infection | Mice Cured/Total ([5]; 15 mg/kg BID oral): 0/6 | Cure outcome ([5]; 15 mg/kg twice daily and 30 mg/kg once daily): failed to cure | % Cured ([5]; 30 mg/kg BID oral): 100% | Mean Day of Relapse ([5]; 30 mg/kg BID oral): >94 days post infection | Mice Cured/Total ([5]; 30 mg/kg BID oral): 6/6 | % Cured ([5]; 30 mg/kg QD oral): 0% | Mean Day of Relapse ([5]; 30 mg/kg QD oral): 50 days post infection | Mice Cured/Total ([5]; 30 mg/kg QD oral): 0/6 | Cure outcome ([5]; 30 mg/kg twice daily and 60 mg/kg once daily): complete cure | % Cured ([5]; 60 mg/kg QD oral): 100% | Mean Day of Relapse ([5]; 60 mg/kg QD oral): >94 days post infection | Mice Cured/Total ([5]; 60 mg/kg QD oral): 6/6 | Dose that completely cured stage 2 infection [5]: 60 mg/kg | T1/2 [6]: 1.6 H | clearance ([6]; plasma): 13.5 mL/min/kg | half-life ([6]; plasma): 96 min | Vd ([6]; plasma): 1.5 L/kg | MDR1-MDCK A–B [7]: 32.6 | MDR1-MDCK B–A [7]: 29.2 | microsomal CLint [8, 9]: 7.41 µL/min/mg | % Cured (T. b. brucei STIB795; 1 mg/kg QD oral): 0% | Mean day of Relapse (T. b. brucei STIB795; 1 mg/kg QD oral): 19.5 days post infection | Mice Cured/Total (T. b. brucei STIB795; 1 mg/kg QD oral): 0/6 | % Cured (T. b. brucei STIB795; 1.5 mg/kg BID oral): 16.7% | Mean day of Relapse (T. b. brucei STIB795; 1.5 mg/kg BID oral): 21 days post infection | Mice Cured/Total (T. b. brucei STIB795; 1.5 mg/kg BID oral): 1/6 | % Cured (T. b. brucei STIB795; 3 mg/kg QD oral): 50% | Mean day of Relapse (T. b. brucei STIB795; 3 mg/kg QD oral): 21 days post infection | Mice Cured/Total (T. b. brucei STIB795; 3 mg/kg QD oral): 3/6 | % Cured (T. b. brucei STIB795; 10 mg/kg QD oral): 100% | Mean day of Relapse (T. b. brucei STIB795; 10 mg/kg QD oral): >31 days post infection | Mice Cured/Total (T. b. brucei STIB795; 10 mg/kg QD oral): 6/6 | Minimum efficacious dose (T. b. brucei STIB795): 10 mg/kg

Cc1nc(C)c(C(=O)Nc2ccc(F)c(-c3nc4ncc(-c5ccccc5)cn4n3)c2)o1 [GNF3849]
Mouse plasma protein binding [1]: high | fraction unbound [1]: < 0.01 | logD [2]: 3.31 | PAMPA Permeability (% FA) [3]: 96 % FA | Kp at 5 min ([4]; brain and plasma, intravenous): 0.22 | Kp at 60 min ([4]; brain and plasma, intravenous): 0.28 | % Cured ([5]; 7.5 mg/kg QD oral): 0% | Mean Day of Relapse ([5]; 7.5 mg/kg QD oral): 37 days post infection | Mice Cured/Total ([5]; 7.5 mg/kg QD oral): 0/6 | % Cured ([5]; 75 mg/kg QD oral): 50% | Day of Relapse, mice which did not relapse (value in parenthesis) ([5]; 75 mg/kg QD oral): > 92 days post infection | Mice Cured/Total ([5]; 75 mg/kg QD oral): 3/6 | Mean Day of Relapse ([5]; 75 mg/kg QD oral, mice which relapsed): 60 days post infection | Cure outcome ([5]; 7.5 and 75 mg/kg, once daily): failed to achieve complete cure | T1/2 [6]: 6.5 H | half-life ([6]; plasma): 390 min | Vd ([6]; plasma): 1.2 L/kg | MDR1-MDCK A–B [7]: 4.5 | MDR1-MDCK B–A [7]: 14.1 | microsomal CLint [8, 9]: 15.2 µL/min/mg | % Cured (T. b. brucei STIB795; 7.5 mg/kg QD oral): 100% | Mean day of Relapse (T. b. brucei STIB795; 7.5 mg/kg QD oral): >31 days post infection | Mice Cured/Total (T. b. brucei STIB795; 7.5 mg/kg QD oral): 6/6 | % Cured (T. b. brucei STIB795; 25 mg/kg QD oral): 100% | Mean day of Relapse (T. b. brucei STIB795; 25 mg/kg QD oral): >31 days post infection | Mice Cured/Total (T. b. brucei STIB795; 25 mg/kg QD oral): 6/6 | % Cured (T. b. brucei STIB795; 75 mg/kg QD oral): 100% | Mean day of Relapse (T. b. brucei STIB795; 75 mg/kg QD oral): >31 days post infection | Mice Cured/Total (T. b. brucei STIB795; 75 mg/kg QD oral): 6/6 | Cure outcome (T. b. brucei STIB795; all doses: 7.5, 25 and 75 mg/kg, once daily, for four days): complete cure

Cc1nc(C)c(C(=O)Nc2ccc(F)c(-c3nc4ncc(-c5ccccn5)cn4n3)c2)o1 [GNF6702]
logD [2]: 2.32 | PAMPA Permeability (% FA) [3]: 92 % FA | Kp at 5 min ([4]; in vivo): 0.13 | Kp at 60 min ([4]; in vivo): 0.17 | % Cured ([5]; 3 mg/kg QD oral): 0% | Mean Day of Relapse ([5]; 3 mg/kg QD oral): 47 days post infection | % Cured ([5]; 10 mg/kg QD oral): 66% | Day of Relapse, mice which did not relapse (value in parenthesis) ([5]; 10 mg/kg QD oral): > 92 days post infection | Mean Day of Relapse ([5]; 10 mg/kg QD oral, mice which relapsed): 50 days post infection | % Cured ([5]; 30 mg/kg QD oral): 100% | Mean Day of Relapse ([5]; 30 mg/kg QD oral): >92 days post infection | % Cured ([5]; 100 mg/kg QD oral): 100% | Mean Day of Relapse ([5]; 100 mg/kg QD oral): >92 days post infection | Cure outcome ([5]; 30 and 100 mg/kg, once daily, oral): complete cure | Dose that completely cured stage 2 infection [5]: 30 mg/kg | T1/2 [6]: 7.0 H | Vd ([6]; in vivo): 1.2 L/kg | clearance ([6]; plasma): 2.26 mL/min/kg | MDR1-MDCK A–B [7]: 8.3 | MDR1-MDCK B–A [7]: 22.1 | microsomal CLint ([8]; microsomes): 34.1 µL/min/mg | % Cured (T. b. brucei STIB795; 0.1 mg/kg QD oral): 0% | Mean day of Relapse (T. b. brucei STIB795; 0.1 mg/kg QD oral): 6.83 days post infection | % Cured (T. b. brucei STIB795; 0.3 mg/kg QD oral): 33.3% | Mean day of Relapse (T. b. brucei STIB795; 0.3 mg/kg QD oral): 19 days post infection | % Cured (T. b. brucei STIB795; 1 mg/kg QD oral): 100% | Mean day of Relapse (T. b. brucei STIB795; 1 mg/kg QD oral): >31 days post infection | % Cured (T. b. brucei STIB795; 3 mg/kg QD oral): 100% | Mean day of Relapse (T. b. brucei STIB795; 3 mg/kg QD oral): >31 days post infection | % Cured (T. b. brucei STIB795; 10 mg/kg QD oral): 100% | Mean day of Relapse (T. b. brucei STIB795; 10 mg/kg QD oral): >31 days post infection | Minimum efficacious dose (T. b. brucei STIB795): 1 mg/kg
